Test results: patent publication US7790762B2, “Compounds and methods for thiol-containing compound efflux and cancer treatment” (National Jewish Health, priority 2002, dated 2010)

What follows are compounds tested on A549 cells (assay: Intracellular GSH levels by HPLC-EC in A549 cells). Conditions: Homo sapiens; A549, 25 μM, 2 h; read-out: Intracellular GSH levels, % compared to control.
Type: cell-based, human
Description: (§1) Cell lines and culture conditions. Human lung epithelial cancer (A549), human leukemia HL-60 and human prostate (PC-3) tumor cells were purchased from ATCC (Manassas, Va.). A549 and PC-3 cells were grown in Ham's F12 medium (F12) and Kaighn's modification of Ham's F12 medium (F12K) with 2 mM L-glutamine (ATCC), respectively, supplemented with 10% fetal bovine serum (FBS) and 5% pen/strep (10,000 unit, Cellgro). HL-60 cells were grown in Iscove's modified Dulbecco's medium with 4 mM L-glutamine (ATCC) supplemented with 20% FBS and 5% pen/strep. Cell were grown in T-75 flask at 37° C. and 5% CO2 air atmosphere and in 24-well plates for GSH levels and LDH release measurements.
(§2) Intracellular levels of GSH. Intracellular GSH levels can be determined by HPLC-EC. Cultured cells from 24-well plates were washed once with 1 ml of PBS and then re-suspended in 0.5 ml of distilled water with 40 μM of digitonin (2 mM stock solution in DMSO) for 30 min at room temperature. Then, 50 μl of 10% meta-phosphoric acid were added (1% final concentration), the samples were sonicated for 2 min, centrifuged at 20,000 g for 10 min, and 0.2 ml of supernatant placed in vials for HPLC analysis. […] The flow rate was […]. The retention time for GSH in these conditions was 7.5 min. The HPLC instrument was from ESA, Inc. (Chelmsford, Mass.), equipped with an autosampler (model 540) and a Coul array detector (model 5600A). The potential applied was +0.75 V vs. H/Pd electrode, and the injection volume 5 μl.

Row | Structure (SMILES) | activity at 25 µM
1 | O=C(/C=C/c1ccccc1)c1ccc(O)cc1 [4′-HC, 4′-hydroxychalcone] | 35.6 ± 2.9%
2 | O=c1c(O)c(-c2ccccc2)oc2cc(O)cc(O)c12 [Galangin, 3,5,7 trihydroxyflavone] | 62.9 ± 0.4%
3 | O=C(/C=C/c1ccc(O)cc1)c1ccccc1 [4-HC, 4-hydroxychalcone] | 5.5 ± 0.4%
4 | O=C(/C=C/c1ccccc1O)c1ccccc1 [2-HC, 2-hydroxychalcone] | < 5%
5 | O=C(/C=C/c1ccc(O)cc1)c1ccc(O)cc1O [2′,4′,4-THC, 2′,4′,4 trihydroxychalcone] | 6.8 ± 0.2%

Same assay, conditions: Homo sapiens; A549, 25 μM, 4 h; read-out: Intracellular GSH levels, % compared to control

Row | Structure (SMILES) | activity at 25 µM
6 | O=C(/C=C/c1ccccc1)c1ccc(O)cc1 [4′-HC, 4′-hydroxychalcone] | < 5%
7 | O=C(/C=C/c1ccc(O)cc1)c1ccccc1 [4-HC, 4-hydroxychalcone] | < 5%
8 | O=C(/C=C/c1ccccc1O)c1ccccc1 [2-HC, 2-hydroxychalcone] | < 5%
9 | O=C(/C=C/c1ccc(O)cc1)c1ccc(O)cc1O [2′,4′,4-THC, 2′,4′,4 trihydroxychalcone] | < 5%

Same assay, conditions: Homo sapiens; A549, 25 μM, 24 hours treatment; read-out: Int. GSH % con.

Row | Structure (SMILES) | activity at 25 µM
10 | O=c1c(O)c(-c2ccccc2)oc2cc(O)cc(O)c12 [Galangin, 3,5,7 trihydroxyflavone] | < 5%
11 | O=C1CC(c2ccc(O)cc2)Oc2cc(O)cc(O)c21 (stereo not drawn) [Naringenin, 4′,5,7-trihydroxyflavanone] | 17%

Same assay, conditions: Homo sapiens; A549, 50 μM, 24 hours treatment; read-out: Int. GSH % con.

Row | Structure (SMILES) | activity at 50 µM
12 | O=c1c(O)c(-c2ccc(O)c(O)c2)oc2cc(O)ccc12 [Fisetin] | 50%
13 | COc1cc(/C=C/C(=O)CC(=O)/C=C/c2ccc(O)c(OC)c2)ccc1O [Curcumin, reference compound] | 53%
14 | O=c1cc(-c2ccccc2)oc2cc(O)c(O)c(O)c12 [Baicalein, 5,6,7 trihydroxyflavone] | 41%
15 | C=C(C)[C@H]1Cc2c(ccc3c2O[C@@H]2COc4cc(OC)c(OC)cc4[C@@H]2C3=O)O1 [Rotenone, reference compound] | 53%

Same assay, conditions: Homo sapiens; A549, 75 μM, 24 hours treatment; read-out: Int. GSH % con.

Row | Structure (SMILES) | activity at 75 µM
16 | Oc1ccc(C=Cc2cc(O)cc(O)c2)cc1 [Resveratrol] | 64%
17 | Oc1cc(O)c2c(c1)O[C@H](c1ccc(O)c(O)c1)[C@H](O)C2 [Epicatechin, (−)-epicatechin] | 47%

These compounds were tested on HL-60 cells (assay: Cytotoxicity as LDH release in HL-60 cells). Conditions: HL-60 cells.
Type: cell-based, human
Description: as §1
(§3) Assessment of cytotoxicity. In one exemplary method, membrane integrity of A549, HL-60 and PC-3 cells was used as an index of drug-induced cytotoxicity, and was assessed by monitoring the release of cytosolic lactate dehydrogenase (LDH). LDH activity was measured in the culture medium and cell lysates (50 mM HEPES, Triton X-100 0.5%, pH 7) using a plate reader format as previously described (41). Briefly, 5 μl of cell culture supernatant and lysates were incubated with 0.24 mM NADH in a Tris/NaCl pH 7.2 buffer in 96-well plates for 5 min at 25° C. The reaction was started by the addition of 9.8 mM pyruvate and the consumption of NADH followed at 340 nm for 5 min at 30° C. Percent LDH release was calculated by the following: (supernatant LDH/supernatant LDH+lysate LDH)×100.

Row | Structure (SMILES) | toxicity
18 | O=c1c(O)c(-c2ccc(O)c(O)c2)oc2cc(O)ccc12 [Fisetin] | toxic

Same assay, conditions: Homo sapiens; HL-60, 25 μM, 48 hours treatment; read-out: LDH rel. % con.

Row | Structure (SMILES) | LDH release, % of control at 25 µM
19 | COc1cc(/C=C/C(=O)CC(=O)/C=C/c2ccc(O)c(OC)c2)ccc1O [Curcumin, reference compound] | 180%
20 | C=C(C)[C@H]1Cc2c(ccc3c2O[C@@H]2COc4cc(OC)c(OC)cc4[C@@H]2C3=O)O1 [Rotenone, reference compound] | 421%

Same assay, conditions: Homo sapiens; HL-60, 50 μM, 48 hours treatment; read-out: LDH rel. % con.

Row | Structure (SMILES) | LDH release, % of control at 50 µM
21 | O=c1c(O)c(-c2ccc(O)c(O)c2)oc2cc(O)ccc12 [Fisetin] | 166%
22 | O=c1c(O)c(-c2ccccc2)oc2cc(O)cc(O)c12 [Galangin, 3,5,7 trihydroxyflavone] | 114%
23 | Oc1ccc(C=Cc2cc(O)cc(O)c2)cc1 [Resveratrol] | 143%
24 | O=C1CC(c2ccc(O)cc2)Oc2cc(O)cc(O)c21 (stereo not drawn) [Naringenin, 4′,5,7-trihydroxyflavanone] | 95%
25 | Oc1cc(O)c2c(c1)O[C@H](c1ccc(O)c(O)c1)[C@H](O)C2 [Epicatechin, (−)-epicatechin] | 76%
26 | O=c1cc(-c2ccccc2)oc2cc(O)c(O)c(O)c12 [Baicalein, 5,6,7 trihydroxyflavone] | 129%

Each compound was assayed on HL-60 cells (assay: Intracellular GSH levels by HPLC-EC in HL-60 cells). Conditions: HL-60 cells.
Type: cell-based, human
Description: as §1, §2

Row | Structure (SMILES) | effect on intracellular GSH (words)
27 | O=c1c(O)c(-c2ccc(O)c(O)c2)oc2cc(O)ccc12 [Fisetin] | relatively effective for depleting GSH
28 | Oc1ccc(C=Cc2cc(O)cc(O)c2)cc1 [Resveratrol] | found effective in HL-60 cells
29 | C=C(C)[C@H]1Cc2c(ccc3c2O[C@@H]2COc4cc(OC)c(OC)cc4[C@@H]2C3=O)O1 [Rotenone, reference compound] | relatively effective for depleting GSH

Same assay, conditions: HL-60 cells, 25 μM, 24 hours of treatment (FIG. 19B)

Row | Structure (SMILES) | intracellular GSH levels compared to control
30 | O=C(/C=C/c1ccccc1)c1ccc(O)cc1 [4′-HC, 4′-hydroxychalcone] | 215%

Same assay, conditions: Homo sapiens; HL-60, 25 μM, 24 hours treatment; read-out: Int. GSH % con.

Row | Structure (SMILES) | activity at 25 µM
31 | Oc1ccc(C=Cc2cc(O)cc(O)c2)cc1 [Resveratrol] | 61%
32 | COc1cc(/C=C/C(=O)CC(=O)/C=C/c2ccc(O)c(OC)c2)ccc1O [Curcumin, reference compound] | 221%
33 | C=C(C)[C@H]1Cc2c(ccc3c2O[C@@H]2COc4cc(OC)c(OC)cc4[C@@H]2C3=O)O1 [Rotenone, reference compound] | < 5%

Same assay, conditions: Homo sapiens; HL-60, 50 μM, 24 hours treatment; read-out: Int. GSH % con.

Row | Structure (SMILES) | activity at 50 µM
34 | O=c1c(O)c(-c2ccc(O)c(O)c2)oc2cc(O)ccc12 [Fisetin] | 16%
35 | O=c1c(O)c(-c2ccccc2)oc2cc(O)cc(O)c12 [Galangin, 3,5,7 trihydroxyflavone] | 69%

Same assay, conditions: Homo sapiens; HL-60, 75 μM, 24 hours treatment; read-out: Int. GSH % con.

Row | Structure (SMILES) | activity at 75 µM
36 | O=C1CC(c2ccc(O)cc2)Oc2cc(O)cc(O)c21 (stereo not drawn) [Naringenin, 4′,5,7-trihydroxyflavanone] | 73%
37 | Oc1cc(O)c2c(c1)O[C@H](c1ccc(O)c(O)c1)[C@H](O)C2 [Epicatechin, (−)-epicatechin] | 90%
38 | O=c1cc(-c2ccccc2)oc2cc(O)c(O)c(O)c12 [Baicalein, 5,6,7 trihydroxyflavone] | 82%

What follows are compounds tested on PC-3 cells (assay: Cytotoxicity as LDH release in PC-3 cells). Conditions: Homo sapiens; PC-3, 50 μM, 48 hours treatment; read-out: LDH rel. % con.
Type: cell-based, human
Description: as §1, §3

Row | Structure (SMILES) | LDH release, % of control at 50 µM
39 | O=c1c(O)c(-c2ccc(O)c(O)c2)oc2cc(O)ccc12 [Fisetin] | 109%
40 | O=c1c(O)c(-c2ccccc2)oc2cc(O)cc(O)c12 [Galangin, 3,5,7 trihydroxyflavone] | 140%
41 | Oc1ccc(C=Cc2cc(O)cc(O)c2)cc1 [Resveratrol] | 135%
42 | O=C1CC(c2ccc(O)cc2)Oc2cc(O)cc(O)c21 (stereo not drawn) [Naringenin, 4′,5,7-trihydroxyflavanone] | 107%
43 | Oc1cc(O)c2c(c1)O[C@H](c1ccc(O)c(O)c1)[C@H](O)C2 [Epicatechin, (−)-epicatechin] | 88%
44 | COc1cc(/C=C/C(=O)CC(=O)/C=C/c2ccc(O)c(OC)c2)ccc1O [Curcumin, reference compound] | 180%
45 | O=c1cc(-c2ccccc2)oc2cc(O)c(O)c(O)c12 [Baicalein, 5,6,7 trihydroxyflavone] | 94%
46 | C=C(C)[C@H]1Cc2c(ccc3c2O[C@@H]2COc4cc(OC)c(OC)cc4[C@@H]2C3=O)O1 [Rotenone, reference compound] | 180%

The compounds below were run on A549 cells (assay: Cytotoxicity as LDH release in A549 cells). Conditions: Homo sapiens; A549, 75 μM, 48 hours treatment; read-out: LDH rel. % con.
Type: cell-based, human
Description: as §1, §3

Row | Structure (SMILES) | LDH release, % of control at 75 µM
47 | O=c1c(O)c(-c2ccc(O)c(O)c2)oc2cc(O)ccc12 [Fisetin] | 267%
48 | O=c1c(O)c(-c2ccccc2)oc2cc(O)cc(O)c12 [Galangin, 3,5,7 trihydroxyflavone] | 155%
49 | Oc1ccc(C=Cc2cc(O)cc(O)c2)cc1 [Resveratrol] | 249%
50 | O=C1CC(c2ccc(O)cc2)Oc2cc(O)cc(O)c21 (stereo not drawn) [Naringenin, 4′,5,7-trihydroxyflavanone] | 130%
51 | Oc1cc(O)c2c(c1)O[C@H](c1ccc(O)c(O)c1)[C@H](O)C2 [Epicatechin, (−)-epicatechin] | 104%
52 | COc1cc(/C=C/C(=O)CC(=O)/C=C/c2ccc(O)c(OC)c2)ccc1O [Curcumin, reference compound] | 140%
53 | O=c1cc(-c2ccccc2)oc2cc(O)c(O)c(O)c12 [Baicalein, 5,6,7 trihydroxyflavone] | 206%
54 | C=C(C)[C@H]1Cc2c(ccc3c2O[C@@H]2COc4cc(OC)c(OC)cc4[C@@H]2C3=O)O1 [Rotenone, reference compound] | 170%

Each compound was assayed on PC-3 cells (assay: Intracellular GSH levels by HPLC-EC in PC-3 cells). Conditions: Homo sapiens; PC-3, 25 μM, 24 hours treatment; read-out: Int. GSH % con.
Type: cell-based, human
Description: as §1, §2

Row | Structure (SMILES) | activity at 25 µM
55 | O=c1c(O)c(-c2ccccc2)oc2cc(O)cc(O)c12 [Galangin, 3,5,7 trihydroxyflavone] | 68%
56 | Oc1ccc(C=Cc2cc(O)cc(O)c2)cc1 [Resveratrol] | 108%
57 | O=C1CC(c2ccc(O)cc2)Oc2cc(O)cc(O)c21 (stereo not drawn) [Naringenin, 4′,5,7-trihydroxyflavanone] | 83%
58 | COc1cc(/C=C/C(=O)CC(=O)/C=C/c2ccc(O)c(OC)c2)ccc1O [Curcumin, reference compound] | 170%
59 | C=C(C)[C@H]1Cc2c(ccc3c2O[C@@H]2COc4cc(OC)c(OC)cc4[C@@H]2C3=O)O1 [Rotenone, reference compound] | 74%

Same assay, conditions: Homo sapiens; PC-3, 50 μM, 24 hours treatment; read-out: Int. GSH % con.

Row | Structure (SMILES) | activity at 50 µM
60 | O=c1c(O)c(-c2ccc(O)c(O)c2)oc2cc(O)ccc12 [Fisetin] | 100%
61 | Oc1cc(O)c2c(c1)O[C@H](c1ccc(O)c(O)c1)[C@H](O)C2 [Epicatechin, (−)-epicatechin] | 115%
62 | O=c1cc(-c2ccccc2)oc2cc(O)c(O)c(O)c12 [Baicalein, 5,6,7 trihydroxyflavone] | 100%

Same assay, conditions: PC-3 cells, 25 μM, 24 hours of treatment (FIG. 19B)

Row | Structure (SMILES) | intracellular GSH levels compared to control
63 | O=C(/C=C/c1ccccc1)c1ccc(O)cc1 [4′-HC, 4′-hydroxychalcone] | 164%
